ChEMBL document CHEMBL1201862, “PubChem BioAssay data set” (2004)
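All cell lines were grown in 96-well plates and treated with compound for 48 hours. Here, GI50 denotes the concentration required for 50% inhibition of growth.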 Calls of active or inactive are those of the source. No stated cut-off is given here; in the data, active = GI50 up to about 1.1 µM and inactive = higher.

What was measured:
Assay in all cases: inhibition of tumour cell growth, NCI panel, 48 h
KM12 = system: KM12
RXF 393 = system: RXF 393
SNB-19 = system: SNB-19
SF-295 = system: SF-295
HL-60 = system: HL-60
HOP-92 = system: HOP-92
LOX IMVI = system: LOX IMVI
EKVX = system: EKVX
HCT-15 = system: HCT-15
UO-31 = system: UO-31
SW-620 = system: SW-620
SK-MEL-28 = system: SK-MEL-28
SNB-75 = system: SNB-75
IGROV-1 = system: IGROV-1
MDA-MB-231 = system: MDA-MB-231
HCC 2998 = system: HCC 2998
NCI-H460 = system: NCI-H460
OVCAR-4 = system: OVCAR-4
UACC-62 = system: UACC-62
SR = system: SR

CN(CCN(C)Cc1ccc(Cl)c(Cl)c1)CCN1CCCC1
GI50 (KM12): 29.9 µM (inactive) | GI50 (RXF 393): 18.5 µM (inactive) | GI50 (SNB-19): > 49.3 µM (inactive) | GI50 (SF-295): 26.1 µM (inactive) | GI50 (HL-60): 17.5 µM (inactive) | GI50 (HOP-92): 4.44 µM (inactive) | GI50 (LOX IMVI): 13.4 µM (inactive) | GI50 (EKVX): > 64 µM (inactive) | GI50 (HCT-15): 37.2 µM | GI50 (UO-31): 11.6 µM (inactive) | GI50 (SW-620): 24.3 µM (inactive) | GI50 (SK-MEL-28): 6.78 µM (inactive) | GI50 (SNB-75): 26 µM (inactive) | GI50 (IGROV-1): 15.8 µM (inactive) | GI50 (MDA-MB-231): 18.8 µM (inactive) | GI50 (HCC 2998): 14.5 µM (inactive) | GI50 (NCI-H460): 27.5 µM (inactive) | GI50 (OVCAR-4): 52.5 µM (inactive) | GI50 (UACC-62): 2.79 µM (inactive)

CN(C)CCCN1c2ccccc2CCc2ccc([N+](=O)[O-])cc21
GI50 (KM12): 18.1 µM (inactive) | GI50 (SNB-19): 45.1 µM (inactive) | GI50 (SF-295): 17.9 µM (inactive) | GI50 (HL-60): 19.8 µM (inactive) | GI50 (LOX IMVI): 16.1 µM (inactive) | GI50 (EKVX): 69.3 µM (inactive) | GI50 (HCT-15): 26.9 µM | GI50 (UO-31): 16 µM (inactive) | GI50 (SW-620): 38.5 µM (inactive) | GI50 (SK-MEL-28): 25.5 µM (inactive) | GI50 (IGROV-1): 14.9 µM (inactive) | GI50 (MDA-MB-231): 39.2 µM (inactive) | GI50 (HCC 2998): 13.9 µM (inactive) | GI50 (NCI-H460): 19.5 µM (inactive) | GI50 (SR): 25.9 µM (inactive) | GI50 (OVCAR-4): 35.5 µM (inactive) | GI50 (UACC-62): 16.1 µM (inactive)

CNc1nnc(CCCCCCCCc2nnc(NC)o2)o1
GI50 (KM12): > 100 µM (inactive) | GI50 (RXF 393): > 100 µM (inactive) | GI50 (SNB-19): > 100 µM (inactive) | GI50 (SF-295): 75.2 µM (inactive) | GI50 (HL-60): 32.4 µM (inactive) | GI50 (HOP-92): > 100 µM (inactive) | GI50 (LOX IMVI): 16.4 µM (inactive) | GI50 (EKVX): > 100 µM (inactive) | GI50 (HCT-15): 27.8 µM | GI50 (UO-31): > 100 µM (inactive) | GI50 (SW-620): 40.7 µM (inactive) | GI50 (SK-MEL-28): > 100 µM (inactive) | GI50 (SNB-75): > 100 µM (inactive) | GI50 (IGROV-1): > 100 µM (inactive) | GI50 (MDA-MB-231): > 100 µM (inactive) | GI50 (NCI-H460): 42 µM (inactive) | GI50 (OVCAR-4): > 100 µM (inactive)

CC1=NOC2(C1)/C(=N/O)CCC/C2=N\O (stereo unspecified)
GI50 (KM12): > 100 µM (inactive) | GI50 (RXF 393): 3.39 µM (inactive) | GI50 (SNB-19): > 100 µM (inactive) | GI50 (SF-295): > 100 µM (inactive) | GI50 (LOX IMVI): > 100 µM (inactive) | GI50 (EKVX): > 100 µM (inactive) | GI50 (HCT-15): > 100 µM | GI50 (UO-31): > 100 µM (inactive) | GI50 (SW-620): > 100 µM (inactive) | GI50 (SK-MEL-28): > 100 µM (inactive) | GI50 (SNB-75): > 100 µM (inactive) | GI50 (IGROV-1): > 100 µM (inactive) | GI50 (MDA-MB-231): > 100 µM (inactive) | GI50 (HCC 2998): > 100 µM (inactive) | GI50 (NCI-H460): > 100 µM (inactive) | GI50 (SR): > 100 µM (inactive) | GI50 (OVCAR-4): > 100 µM (inactive) | GI50 (UACC-62): > 100 µM (inactive)

Cc1cc(C)c(C#N)c(SC(=S)NC(=O)c2ccc(Cl)cc2)n1
GI50 (KM12): > 100 µM (inactive) | GI50 (RXF 393): > 100 µM (inactive) | GI50 (SNB-19): > 100 µM (inactive) | GI50 (SF-295): > 100 µM (inactive) | GI50 (HOP-92): > 100 µM (inactive) | GI50 (LOX IMVI): > 100 µM (inactive) | GI50 (EKVX): > 100 µM (inactive) | GI50 (HCT-15): > 100 µM | GI50 (UO-31): > 100 µM (inactive) | GI50 (SW-620): > 100 µM (inactive) | GI50 (SK-MEL-28): > 100 µM (inactive) | GI50 (SNB-75): > 100 µM (inactive) | GI50 (MDA-MB-231): > 100 µM (inactive) | GI50 (HCC 2998): > 100 µM (inactive) | GI50 (NCI-H460): > 100 µM (inactive) | GI50 (OVCAR-4): > 100 µM (inactive) | GI50 (UACC-62): > 100 µM (inactive)

CC1CN(C)c2ccccc2N=C1NN (stereo unspecified)
GI50 (KM12): > 100 µM (inactive) | GI50 (RXF 393): 0.217 µM (active) | GI50 (SNB-19): > 100 µM (inactive) | GI50 (SF-295): > 100 µM (inactive) | GI50 (HL-60): > 100 µM (inactive) | GI50 (EKVX): > 100 µM (inactive) | GI50 (HCT-15): > 100 µM | GI50 (UO-31): > 100 µM (inactive) | GI50 (SW-620): > 100 µM (inactive) | GI50 (SK-MEL-28): > 100 µM (inactive) | GI50 (IGROV-1): > 100 µM (inactive) | GI50 (MDA-MB-231): > 100 µM (inactive) | GI50 (NCI-H460): > 100 µM (inactive) | GI50 (OVCAR-4): > 100 µM (inactive) | GI50 (UACC-62): > 100 µM (inactive)

Cn1c(=O)sc2cc(C(=S)N3CCC(Cc4ccccc4)CC3)ccc21
GI50 (KM12): 34.7 µM (inactive) | GI50 (RXF 393): 21.6 µM (inactive) | GI50 (SNB-19): > 100 µM (inactive) | GI50 (SF-295): 27.3 µM (inactive) | GI50 (HL-60): 22.5 µM (inactive) | GI50 (LOX IMVI): 58.5 µM (inactive) | GI50 (EKVX): 9.42 µM (inactive) | GI50 (HCT-15): 99.5 µM | GI50 (SW-620): > 100 µM (inactive) | GI50 (SK-MEL-28): 46.6 µM (inactive) | GI50 (IGROV-1): 33.8 µM (inactive) | GI50 (MDA-MB-231): > 100 µM (inactive) | GI50 (NCI-H460): 27.8 µM (inactive) | GI50 (SR): 17.7 µM (inactive) | GI50 (UACC-62): 61.5 µM (inactive)

CSc1[nH]nc(N)c1C(=O)Nc1ccccc1
GI50 (KM12): > 100 µM (inactive) | GI50 (RXF 393): > 100 µM (inactive) | GI50 (SNB-19): > 100 µM (inactive) | GI50 (HL-60): > 100 µM (inactive) | GI50 (LOX IMVI): > 100 µM (inactive) | GI50 (EKVX): > 100 µM (inactive) | GI50 (HCT-15): > 100 µM | GI50 (UO-31): > 100 µM (inactive) | GI50 (SW-620): > 100 µM (inactive) | GI50 (SK-MEL-28): > 100 µM (inactive) | GI50 (SNB-75): > 100 µM (inactive) | GI50 (IGROV-1): > 100 µM (inactive) | GI50 (MDA-MB-231): > 100 µM (inactive) | GI50 (HCC 2998): > 100 µM (inactive) | GI50 (NCI-H460): > 100 µM (inactive) | GI50 (SR): > 100 µM (inactive) | GI50 (OVCAR-4): > 100 µM (inactive) | GI50 (UACC-62): > 100 µM (inactive)
